Laboratory results reported in article PMC11881559 (Antimicrobial Agents and Chemotherapy, 2025).
“And” between values parts separate entries of the source, which are not always exact repeats. Equal values may be shown once. Read-outs that look alike come from different tables or passages of the source.

What was measured:
[1] = 12-lead ECG QTcF assessment and C-QT model; type: in vivo, human
Protocol: To evaluate the cardiotoxicity of the drug, 12-lead ECG was conducted at several time points: 0 h, 1 h, 2 h, 4 h, 24 h, 48 h, 72 h, and 96 h after dosing in the SAD, food-effect, and DDI studies. In the MAD study, 12-lead ECG data were collected on day 1 (0 h, 1 h, 2 h, 4 h, and 8 h after dosing) and on day 5 (0 h, 1 h, 2 h, 4 h, 24 h, 48 h, 72 h, and 96 h after dosing), as well as before dosing and 2 h after dosing on days 2–4. Three consecutive ECGs were performed at each of these time points. The QT interval was corrected using the Fridericia formula [QTcF = QT / (RR^0.33), where RR = 60/heart rate]. Descriptive statistics were applied to the number of participants with abnormal changes in QTcF after dosing compared to baseline, including: (i) absolute value of QTcF >450 ms; (ii) absolute value of QTcF >500 ms; (iii) 30 ms < ΔQTcF ≤ 60 ms; (iv) ΔQTcF >60 ms (ΔQTcF = QTcF after dosing − baseline).

[2] = Preclinical toxicology, NOAEL in dogs; type: in vivo; details: from dog NOAEL, at 60 kg body weight
[3] = rats; preclinical animal studies; cited from earlier work
[4] = dogs; preclinical animal studies; cited from earlier work
wild-type strain = details: in vitro, corrected by the plasma protein binding rate; cited from earlier work
Omicron = details: in vitro, corrected by the plasma protein binding rate; cited from earlier work
[5] = Food-effect study, plasma PK; details: for AUC0-t / AUC0-∞ / Cmax / MRT0-∞: mean (%CV); for t1/2: mean ± SD
[6] = Multiple ascending dose (MAD) study, plasma PK; details: for t1/2: mean ± SD
[7] = Drug-drug interaction (DDI) study with ritonavir, plasma PK; details: 200 mg in combination with ritonavir vs 200 mg alone

In the case of `O=C(NC1CCCC1)C(=O)[C@H](C[C@@H]1CCNC1=O)NC(=O)[C@@H]1[C@H]2CCC[C@H]2CN1C(=O)[C@@H](NC(=O)C(F)(F)F)C1CCCCC1` [RAY1216, leritrelvir], the “participants with absolute value of QTcF exceeding 450 ms” value ([1]; 700 mg combined with ritonavir BID group) is reported as “one”, the “mean ΔΔQTcF” value ([1]; 700 mg combined with ritonavir BID, at average Cmax 9280 ng/mL, C-QT model, 90% CI: −1.6526–7.0164) is reported as 2.6819 ms and the “correlation between drug concentration and the QT interval” value ([1]; C-QT model analysis) is reported as “no significant correlation”. The “participants exceeding a ΔQTcF of 60 ms” value ([1]; all cohorts) was “no participants”, the “upper limit of the 90% CI for the average ΔΔQTcF” value ([1]; at the average Cmax concentration in each cohort, C-QT model predicted) was “less than 10 ms” and the human equivalent dose [2] was ~21,000 mg/day. For the same compound, the “no-observed-adverse-effect level (NOAEL)” value [3] was 900 mg/kg/day, the “no-observed-adverse-effect level (NOAEL)” value [4] was 600 mg/kg/day and the “antiviral 90% effective concentration (EC90)” value (wild-type strain) was 0.165 µg/mL. For the same compound, the “antiviral 90% effective concentration (EC90)” value (Omicron) was 0.2097 µg/mL, the Tmax ([5]; 500 mg alongside 100 mg ritonavir, fasting) was 2.5 h and the Tmax ([5]; 500 mg alongside 100 mg ritonavir, high-fat food) was 3.0 h. The AUC0-t ([5]; 800 mg, Fast) was 22,700 (38.9) ng·h/mL, the “AUC0-∞” value ([5]; 800 mg, Fast) was 23,000 (38.9) ng·h/mL and the Cmax ([5]; 800 mg, Fast) was 4,760 (31.6) ng/mL. For the same compound, the “MRT0-∞” value ([5]; 800 mg, Fast) was 7.01 (26.4) h, the t1/2 ([5]; 800 mg, Fast) was 7.72 ± 4.46 h and the Tmax ([5]; 800 mg, Fast, median (range)) was 1.5 (0.5, 3.0) h. For the same compound, the AUC0-t ([5]; 800 mg, Fed) was 34,100 (28) ng·h/mL, the “AUC0-∞” value ([5]; 800 mg, Fed) was 34,200 (27.9) ng·h/mL and the Cmax ([5]; 800 mg, Fed) was 8,510 (27.6) ng/mL. For the same compound, the “MRT0-∞” value ([5]; 800 mg, Fed) was 5.96 (22.2) h, the t1/2 ([5]; 800 mg, Fed) was 7.08 ± 3.61 h and the Tmax ([5]; 800 mg, Fed, median (range)) was 3.0 (1.0, 6.0) h. The “Tmax delayed by” value ([5]; 800 mg, feeding vs fasting condition) was 1.5 h, the “plasma concentration reached a steady state by” value ([6]; 400 mg TID) was ≤ 2 days and the AUC0-t ([6]; 400 mg TID, Day 1, mean (%CV)) was 9,720 (36) ng·h/mL. The AUC0-tau ([6]; 400 mg TID, Day 1, mean (%CV)) was 10,600 (30.4) ng·h/mL, the “AUC0-∞” value ([6]; 400 mg TID, Day 1, mean (%CV)) was 13,300 (32) ng·h/mL and the Cmax ([6]; 400 mg TID, Day 1, mean (%CV)) was 3,450 (37.2) ng/mL. The “MRT0-∞” value ([6]; 400 mg TID, Day 1, mean (%CV)) was 3.93 (16.5) h, the t1/2 ([6]; 400 mg TID, Day 1) was 2.31 ± 0.465 h and the Tmax ([6]; 400 mg TID, Day 1, median (range)) was 1.5 (1.0, 2.0) h. For the same compound, the AUC0-t ([6]; 400 mg TID, Day 5, mean (%CV)) was 15,400 (32.5) ng·h/mL, the AUC0-tau ([6]; 400 mg TID, Day 5, mean (%CV)) was 10,000 (36) ng·h/mL and the “AUC0-∞” value ([6]; 400 mg TID, Day 5, mean (%CV)) was 15,500 (32.2) ng·h/mL. For the same compound, the Cmax ([6]; 400 mg TID, Day 5, mean (%CV)) was 2,700 (32.3) ng/mL, the “Cmin,ss” value ([6]; 400 mg TID, Day 5, mean (%CV)) was 382 ng/mL and 382 (44.9) ng/mL and the “MRT0-∞” value ([6]; 400 mg TID, Day 5, mean (%CV)) was 6.23 (18.9) h. For the same compound, the t1/2 ([6]; 400 mg TID, Day 5) was 9.61 ± 2.26 h, the Tmax ([6]; 400 mg TID, Day 5, median (range)) was 1.5 (1.0, 3.0) h and the Tmax ([6]; 400 mg TID, continuous administration) was 1.5 h. The “plasma concentrations reached a steady state by” value ([6]; 300, 500 or 700 mg with 100 mg ritonavir BID) was ≤ 2 days, the “mean AUC0-t increased to” value [7] was 350.07% and the “mean AUC0-∞ increased to” value [7] was 171.00%. The “mean C12h concentration increased by” value [7] was 417.3 ng/mL and the “mean Cmax increased to” value [7] was 348.03%.
